Legend:
PFK = test system: PFK; parameters: key to Effect (activator or inhibitor of PFK): “+” indicates activator; “-“ indicates inhibitor; conditions: cited from earlier work; for Effect (activator or inhibitor of PFK): published literature, ref selected references in Supplementary Table 1
PFKL = conditions: ref Van Schaftingen et al 1981; cited from earlier work
PFKM = conditions: PFKM; ref Sanchez-Martinez et al., 2000; read-out: Kact; cited from earlier work
recombinant human PFK-P = target: T1, recombinant human PFK-P (Homo sapiens, UniProt Q01813); experiment: ALDO-TIM-G3PDH enzyme-linked kinetic assay, PFK-P; type: biochemical; conditions: modulator 1100 µM
T1 construct: made in house; host or cells: PFK-deficient Saccharomyces cerevisiae
T1 sequence (Q01813 1-784): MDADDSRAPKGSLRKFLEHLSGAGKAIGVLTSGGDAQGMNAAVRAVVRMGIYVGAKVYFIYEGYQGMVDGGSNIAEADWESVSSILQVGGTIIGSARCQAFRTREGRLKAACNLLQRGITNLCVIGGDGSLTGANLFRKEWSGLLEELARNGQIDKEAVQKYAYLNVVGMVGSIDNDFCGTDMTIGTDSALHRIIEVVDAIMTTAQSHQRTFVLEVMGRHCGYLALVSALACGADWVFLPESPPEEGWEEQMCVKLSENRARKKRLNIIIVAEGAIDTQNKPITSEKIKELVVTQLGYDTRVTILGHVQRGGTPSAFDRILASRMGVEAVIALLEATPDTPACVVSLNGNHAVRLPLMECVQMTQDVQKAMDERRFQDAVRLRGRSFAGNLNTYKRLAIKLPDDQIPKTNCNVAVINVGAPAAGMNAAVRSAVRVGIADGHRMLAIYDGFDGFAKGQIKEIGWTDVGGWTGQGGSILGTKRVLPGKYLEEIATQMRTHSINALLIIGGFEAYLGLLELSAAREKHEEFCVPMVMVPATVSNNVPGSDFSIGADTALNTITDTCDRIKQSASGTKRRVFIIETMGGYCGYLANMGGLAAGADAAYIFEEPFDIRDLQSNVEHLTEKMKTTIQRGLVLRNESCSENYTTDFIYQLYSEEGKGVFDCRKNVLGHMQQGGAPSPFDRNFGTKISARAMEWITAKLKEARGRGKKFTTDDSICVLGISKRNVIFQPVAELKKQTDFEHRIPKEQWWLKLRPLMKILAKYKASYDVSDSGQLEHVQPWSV
Method: (§1) Recombinant human PFKs were expressed in PFK-deficient Saccharomyces cerevisiae and purified using the methods described previously, adapting earlier materials and protocols. Production of PFK intended for use in ATP titration experiments used 1 mM F6P as a tetramer stabilising agent in protein purification and storage buffers. Production of PFK intended for use in F6P titration experiments used 1 mM ATP as a tetramer stabilising agent in protein purification and storage buffers. Experimental details on the purification and characterisation procedures including figures showing SDS–PAGE gels of the highly pure PFKs used in the kinetic experiments described in this work have been recently published.
(§2) Assay buffer consisted of 50 mM TEA, 100 mM KCl, 10 mM MgCl2, 1 mM Tris(2-carboxyethyl)phosphine hydrochloride (TCEP), 10% glycerol, pH 7.4. Assay mix consisted of 5 units/ml glycerol-3-phosphate dehydrogenase (G3PDH, Sigma–Aldrich G6880), 2.5 units/ml aldolase (Sigma–Aldrich A2714), 25 units/ml triosephosphate isomerase (TIM, Sigma–Aldrich T6258), and 1.25 mM NADH. ATP and F6P were obtained from Sigma–Aldrich (A2383 and F3627, respectively). For ATP titrations, 38 µl of buffer or ligand were added to a clear non-binding 96-well plate. 40 µl of assay mix containing 10 mM F6P (final concentration 4 mM) was added and the plate was incubated at 25°C for 5 min. An amount of 2 µl of PFK isoforms were added to each well from stock concentrations of 150 µg/ml and the reaction was immediately started with 20 µl of ATP at varying concentrations. For F6P titrations, 30 µl of buffer or ligand was added to a clear non-binding 96-well plate. An amount of 40 µl of assay mix containing 1.25 mM ATP (final concentration 0.5 mM) was added and the plate was incubated at 25°C for 5 min. An amount of 5 µl of PFK isoforms were added to each well from stock concentrations of 200 µg/ml and the reaction was immediately started with 20 µl F6P at varying concentrations. All ligands and substrates (including ATP) were used at pH 7.4. All metabolites were obtained from Sigma–Aldrich unless otherwise stated. […] A SpectraMax M5 Multi-Mode Microplate Reader was used to measure A340nm at 13 s intervals for 10 min. All experiments were performed in triplicate unless otherwise stated.
(§3) Time-dependent absorbance change was converted into rate of NADH oxidation (µM s^−1) or specific activity (µmol min^−1 mg protein^−1) using the Beer-Lambert law (molar extinction coefficient of NADH 6.22 mM^−1 cm^−1). The initial rate of reaction was used to avoid accumulation of ADP, which activates PFK, interfering with the determination of kinetic properties. Non-linear regression analysis was performed on substrate titration data using GraphPad Prism 7, with curves fitted using allosteric sigmoidal models, enabling determination of steady-state kinetic values.

recombinant human PFK-L = target: T2, recombinant human PFK-L (Homo sapiens, UniProt P17858); experiment: ALDO-TIM-G3PDH enzyme-linked kinetic assay, PFK-L; type: biochemical; conditions: PFK-L, modulator 1100 µM
T2 construct: made in house; host or cells: PFK-deficient Saccharomyces cerevisiae
T2 sequence (P17858 1-780): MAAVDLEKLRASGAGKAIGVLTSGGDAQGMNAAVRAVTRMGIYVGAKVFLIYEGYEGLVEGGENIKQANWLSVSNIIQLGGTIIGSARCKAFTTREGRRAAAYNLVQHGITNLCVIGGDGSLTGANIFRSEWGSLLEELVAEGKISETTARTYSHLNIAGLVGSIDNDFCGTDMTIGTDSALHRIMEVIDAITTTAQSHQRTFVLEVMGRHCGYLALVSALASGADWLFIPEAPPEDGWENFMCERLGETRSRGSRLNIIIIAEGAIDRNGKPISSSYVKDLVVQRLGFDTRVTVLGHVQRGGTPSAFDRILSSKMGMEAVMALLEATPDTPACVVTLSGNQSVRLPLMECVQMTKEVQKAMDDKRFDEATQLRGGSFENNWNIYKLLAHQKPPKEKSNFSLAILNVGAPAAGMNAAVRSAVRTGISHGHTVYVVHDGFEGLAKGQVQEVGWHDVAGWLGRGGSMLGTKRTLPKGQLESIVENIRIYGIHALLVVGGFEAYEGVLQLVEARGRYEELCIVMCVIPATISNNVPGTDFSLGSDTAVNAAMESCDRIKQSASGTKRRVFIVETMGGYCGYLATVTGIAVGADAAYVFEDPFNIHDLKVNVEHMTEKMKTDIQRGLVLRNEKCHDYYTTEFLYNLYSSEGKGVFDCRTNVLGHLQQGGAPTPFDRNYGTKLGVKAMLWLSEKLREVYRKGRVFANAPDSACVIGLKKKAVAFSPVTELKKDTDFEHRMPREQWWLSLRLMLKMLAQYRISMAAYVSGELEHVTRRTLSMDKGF
Method: as §1, §2, §3

recombinant human PFK-M = target: T3, recombinant human PFK-M (Homo sapiens, UniProt P08237); experiment: ALDO-TIM-G3PDH enzyme-linked kinetic assay, PFK-M; type: biochemical; conditions: modulator 1100 µM
T3 construct: made in house; host or cells: PFK-deficient Saccharomyces cerevisiae
T3 sequence (P08237 1-780): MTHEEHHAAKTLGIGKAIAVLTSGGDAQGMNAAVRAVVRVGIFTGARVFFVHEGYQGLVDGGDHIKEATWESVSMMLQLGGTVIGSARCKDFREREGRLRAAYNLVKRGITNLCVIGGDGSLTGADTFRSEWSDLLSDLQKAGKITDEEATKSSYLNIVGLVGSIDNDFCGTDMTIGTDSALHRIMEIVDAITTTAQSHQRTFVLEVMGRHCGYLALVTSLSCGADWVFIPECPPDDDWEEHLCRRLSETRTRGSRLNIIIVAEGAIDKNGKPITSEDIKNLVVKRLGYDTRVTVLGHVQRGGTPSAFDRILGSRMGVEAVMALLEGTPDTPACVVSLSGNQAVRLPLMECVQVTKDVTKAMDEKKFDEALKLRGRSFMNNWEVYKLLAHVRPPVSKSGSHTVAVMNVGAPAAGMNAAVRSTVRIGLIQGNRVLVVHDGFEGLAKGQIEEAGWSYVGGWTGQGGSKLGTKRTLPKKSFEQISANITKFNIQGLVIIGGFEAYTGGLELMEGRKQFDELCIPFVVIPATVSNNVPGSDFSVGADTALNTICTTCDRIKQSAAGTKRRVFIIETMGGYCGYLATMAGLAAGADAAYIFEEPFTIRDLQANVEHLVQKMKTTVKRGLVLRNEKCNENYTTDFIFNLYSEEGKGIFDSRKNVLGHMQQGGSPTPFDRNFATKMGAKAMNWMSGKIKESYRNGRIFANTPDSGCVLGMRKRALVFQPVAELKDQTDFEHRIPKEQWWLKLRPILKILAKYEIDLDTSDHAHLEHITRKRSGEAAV
Method: as §1, §2, §3

PFKP = conditions: ref Sanchez-Martinez et al., 2000; cited from earlier work
[1] = test system: monocyte-derived macrophages; parameters: method as in FANTOM5 database; conditions: n = 3, ref FANTOM5 database, cited from earlier work

O=C1O[C@H]([C@@H](O)CO)C(O)=C1O [Ascorbate]
Effect (activator or inhibitor of PFK) (PFK): -

O=C(COP(=O)(O)O)[C@@H](O)[C@H](O)[C@H](O)COP(=O)(O)O [F16BP, fructose 1,6-bisphosphate]
Effect (activator or inhibitor of PFK) (PFK): +
IC50 or AC50 (activator) (PFKL): 40 µM
EC50 (PFKM): 1500 nM

O=P(O)(O)OC[C@H]1O[C@H](OP(=O)(O)O)[C@H](O)[C@@H](O)[C@@H]1O [G16BP]
Effect (activator or inhibitor of PFK) (PFK): +
IC50 or AC50 (activator) (PFKL): 100 µM

Nc1nc2c(ncn2[C@@H]2O[C@H](COP(=O)(O)OP(=O)(O)O)[C@@H](O)[C@H]2O)c(=O)[nH]1 [GDP]
change in kcat^ATP/K0.5^ATP compared with control PFK without modulator (recombinant human PFK-P): −0.2%
K0.5ATP + modulator (recombinant human PFK-P; F6P 4mM, N=3, mean (SD)): 924.6 (367.7) M
VmaxATP + modulator (recombinant human PFK-P; F6P 4mM, N=3, mean (SD)): 31.48 (4.42) moles/min/mg
change in kcat^ATP/K0.5^ATP compared with control PFK without modulator (recombinant human PFK-L): −48%
K0.5ATP + modulator (recombinant human PFK-L; F6P 4mM, N=3, mean (SD)): 404.4 (65.6) M
VmaxATP + modulator (recombinant human PFK-L; F6P 4mM, N=3, mean (SD)): 44.20 (2.84) moles/min/mg
change in kcat^ATP/K0.5^ATP compared with control PFK without modulator (recombinant human PFK-M): +4.3%

[K+] [K+]
Effect (activator or inhibitor of PFK) (PFK): +

N [NH4+]
Effect (activator or inhibitor of PFK) (PFK): +
IC50 or AC50 (activator) (PFKP): 0.4 mM

O=P(O)(O)O [PO4 3-]
Effect (activator or inhibitor of PFK) (PFK): +
IC50 or AC50 (activator) (PFKP): 0.3 mM

Nc1nc2c(ncn2[C@@H]2O[C@@H]3COP(=O)(O)O[C@H]3[C@H]2O)c(=O)[nH]1 [cGMP]
Effect (activator or inhibitor of PFK) (PFK): -

Actin
Effect (activator or inhibitor of PFK) (PFK): +

Lactate
Effect (activator or inhibitor of PFK) (PFK): -
IC50 (PFK; value marked *, asterisk not explained, ref Costa Leite et al., 2007, read-out: IC50 or AC50 (inhibitor)): 4.6 mM

lipopolysaccharide [LPS]
PFK-P transcript level ([1]; monocyte-derived macrophages activated by LPS): 10.3 × baseline
PFK-L transcript level ([1]; monocyte-derived macrophages after LPS stimulation): 1.9 × baseline

B1: Band 3: protein, PFK inhibitor in the published literature (protein, UniProt P02730 1-911, looked up)
Band 3 anion transport protein: MEELQDDYEDMMEENLEQEEYEDPDIPESQMEEPAAHDTEATATDYHTTSHPGTHKVYVELQELVMDEKNQELRWMEAARWVQLEENLGENGAWGRPHLSHLTFWSLLELRRVFTKGTVLLDLQETSLAGVANQLLDRFIFEDQIRPQDREELLRALLLKHSHAGELEALGGVKPAVLTRSGDPSQPLLPQHSSLETQLFCEQGDGGTEGHSPSGILEKIPPDSEATLVLVGRADFLEQPVLGFVRLQEAAELEAVELPVPIRFLFVLLGPEAPHIDYTQLGRAAATLMSERVFRIDAYMAQSRGELLHSLEGFLDCSLVLPPTDAPSEQALLSLVPVQRELLRRRYQSSPAKPDSSFYKGLDLNGGPDDPLQQTGQLFGGLVRDIRRRYPYYLSDITDAFSPQVLAAVIFIYFAALSPAITFGGLLGEKTRNQMGVSELLISTAVQGILFALLGAQPLLVVGFSGPLLVFEEAFFSFCETNGLEYIVGRVWIGFWLILLVVLVVAFEGSFLVRFISRYTQEIFSFLISLIFIYETFSKLIKIFQDHPLQKTYNYNVLMVPKPQGPLPNTALLSLVLMAGTFFFAMMLRKFKNSSYFPGKLRRVIGDFGVPISILIMVLVDFFIQDTYTQKLSVPDGFKVSNSSARGWVIHPLGLRSEFPIWMMFASALPALLVFILIFLESQITTLIVSKPERKMVKGSGFHLDLLLVVGMGGVAALFGMPWLSATTVRSVTHANALTVMGKASTPGAAAQIQEVKEQRISGLLVAVLVGLSILMEPILSRIPLAVLFGIFLYMGVTSLSGIQLFDRILLLFKPPKYHPDVPYVKRVKTWRMHLFTGIQIICLAVLWVVKSTPASLALPFVLILTVPLRRVLLPLIFRNVELQCLDADDAKATFDEEEGRDEYDEVAMPV
Effect (activator or inhibitor of PFK) (PFK): -
